Patent US8211901B2, “Naphthamide derivatives as multi-target protein kinase inhibitors and histone deacetylase inhibitors” (Shenzhen Chipscreen Biosciences Ltd., priority 2009, dated 2012)

Tests used:
human PDGFRβ = target: T1, human PDGFRβ (Homo sapiens, UniProt P09619); assay: PDGF dependent cell proliferation (MTS); format: cell-based; conditions: PDGFRβ NIH-3T3 cells, PDGF BB 50 ng/ml, 72 hours, serum-free medium; read-out: GI50 nM (PDGF ligand-dependent cell proliferation)
T1 construct: expressed in transfected cells
T1 sequence (P09619 33-1106): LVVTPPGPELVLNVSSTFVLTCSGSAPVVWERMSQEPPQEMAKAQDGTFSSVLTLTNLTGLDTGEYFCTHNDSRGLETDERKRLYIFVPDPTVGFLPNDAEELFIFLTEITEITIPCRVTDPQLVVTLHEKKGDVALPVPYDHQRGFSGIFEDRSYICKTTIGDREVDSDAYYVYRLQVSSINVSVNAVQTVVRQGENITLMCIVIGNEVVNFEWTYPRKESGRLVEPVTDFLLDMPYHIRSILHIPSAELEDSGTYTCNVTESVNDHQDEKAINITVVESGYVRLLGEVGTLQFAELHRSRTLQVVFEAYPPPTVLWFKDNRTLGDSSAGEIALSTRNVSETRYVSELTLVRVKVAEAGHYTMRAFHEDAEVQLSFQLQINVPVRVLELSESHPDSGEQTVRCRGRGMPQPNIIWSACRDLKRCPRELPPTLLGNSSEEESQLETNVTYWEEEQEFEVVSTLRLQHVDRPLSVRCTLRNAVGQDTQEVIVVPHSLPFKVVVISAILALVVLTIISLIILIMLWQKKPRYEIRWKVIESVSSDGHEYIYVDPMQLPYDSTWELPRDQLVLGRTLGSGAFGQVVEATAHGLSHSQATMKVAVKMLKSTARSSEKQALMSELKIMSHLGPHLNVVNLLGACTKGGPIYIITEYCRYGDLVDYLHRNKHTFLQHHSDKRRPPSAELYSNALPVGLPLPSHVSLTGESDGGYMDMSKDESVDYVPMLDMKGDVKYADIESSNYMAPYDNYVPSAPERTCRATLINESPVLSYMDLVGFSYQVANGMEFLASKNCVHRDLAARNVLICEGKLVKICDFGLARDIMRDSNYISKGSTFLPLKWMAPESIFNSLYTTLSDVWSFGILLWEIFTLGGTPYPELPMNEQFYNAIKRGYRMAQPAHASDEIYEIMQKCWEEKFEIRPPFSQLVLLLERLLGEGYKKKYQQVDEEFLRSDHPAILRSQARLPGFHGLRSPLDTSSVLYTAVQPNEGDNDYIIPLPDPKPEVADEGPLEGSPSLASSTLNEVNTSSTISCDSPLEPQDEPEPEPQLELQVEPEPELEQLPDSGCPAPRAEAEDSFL
Experimental: PDGF Dependent Cell Proliferation:
NIH-3T3 mouse fibroblasts cell line engineered to stably express human PDGFIRβ was constructed and used to evaluate PDGF dependent cell proliferation. PDGFRβ NIH-3T3 cells were plated into 96-well plates at 5,000 per well and incubated with serum-free medium for 24 hours. Compounds and PDGF BB (50 ng/ml) were added and incubated for 72 hours in serum-free medium. The effects on proliferation were determined by addition of MTS reagent (Promega) according to the instruction, incubation for 2 hours at 37° C. in CO2 incubator, and record the absorbance at 490 nm using an ELISA plate reader.

HUVEC cells = assay: VEGF dependent cell proliferation (MTS); format: cell-based; conditions: Homo sapiens, VEGF 165 50 ng/ml, 72 hours, serum-free medium, read-out: GI50 nM (VEGF ligand-dependent cell proliferation)
Experimental: VEGF Dependent Cell Proliferation:
HUVEC cells were plated into 96-well plates at 6,000 per well and incubated with serum-free medium for 2 hours. Compounds and VEGF 165 (50 ng/ml) were added and incubated for 72 hours in serum-free medium. The effects on proliferation were determined by addition of MTS reagent (Promega) according to the instruction, incubation for 2 hours at 37° C. in CO2 incubator, and record the absorbance at 490 nm using an ELISA plate reader.

[1] = tested on: total HDAC enzyme (HeLa extract); assay: In vitro inhibition of total HDAC enzyme activity (HDAC Fluorimetric Assay/Drug Discovery Kit); format: biochemical
Experimental: Measurement of In Vitro Inhibition of Total HDAC Enzyme Activity:
The in vitro inhibition of total HDAC enzyme was determined by HDAC Fluorimetric Assay/Drug Discovery Kit (BIOMOL) according to manufacture's instruction. • 1. Add Assay buffer, diluted trichostatin A or test inhibitor to appropriate wells of the microtiter plate. Following table lists examples of various assay types and the additions required for each test.
• 2. Add diluted HeLa extract or other HDAC sample to all wells except those that are to be “No Enzyme Controls” (Blank). • 3. Allow diluted Fluor de Lys™ Substrate and the samples in the microtiter plate to equilibrate to assay temperature (25° C.). • 4. Initiate HDAC reactions by adding diluted substrate (25 μl) to each well and mixing thoroughly. • 5. Allow HDAC reactions to proceed for desired length of time and then stop them by addition of Fluor de Lys™ Developer (50 μl). Incubate plate at room temperature (25° C.) for 10-15 min. • 6. Read samples in a microtiter-plate reading fluorimeter capable of excitation at a wavelength in the range 350-380 nm and detection of emitted light in the range 440-460 nm. Measurement of In Vivo Inhibition of HDAC Subtype Activity: […]

Class I HDAC = assay: P21 reporter gene assay in HeLa cells; format: cell-based; conditions: 24 hours
Experimental: HDAC subtype selectivity inhibition assay of tested compounds was carried out by several reporter gene assays experiments. Briefly, HeLa cells were seeded in 96-well plates the day before transfection to give a confluence of 50-80%. Cells were transfected with one of reporter gene plasmid containing a promoter sequence or response element upstream of a luciferase gene construct using FuGene6 transfection reagent according to the manufacturer's instruction (Roche). The promoters or response elements including p21-promoter was fused upstream to the luciferase gene reporter construct. For normalizing the transfection efficiency, a GFP expression plasmid was cotransfected. Cells were allowed to express protein for 24 hours followed by addition of individual compounds or the vehicle (DMSO). 24 hours later the cells were harvested, and the luciferase assay and GFP assay were performed using corresponding assay kits according to the manufacturer's instructions (Promega).

A-498 = assay: Tumor cell proliferation (MTS), A-498; format: cell-based; conditions: Homo sapiens, A498; 72 hours, complete medium
Experimental: (§1) Measurement of In Vivo Cell Proliferation:
(§2) Tumor cells were trypsinized and plated into 96-well plates at 3,000 per well and incubated in complete medium with 10% FBS for 24 hours. Compounds were added over a final concentration range of 100 μmol/L to 100 nmol/L in 0.1% DMSO and incubated for 72 hours in complete medium. The effects on proliferation were determined by addition of MTS reagent (Promega) according to the instruction, incubation for 2 hours at 37° C. in CO2 incubator, and record the absorbance at 490 nm using an ELISA plate reader.

A549 = assay: Tumor cell proliferation (MTS), A549; format: cell-based; conditions: Homo sapiens, 72 hours, complete medium
Experimental: as §1, §2
(§3) Human Cell Lines are Listed Below:
A549: Non small cell lung carcinoma

Bel-7402 = assay: Tumor cell proliferation (MTS), Bel-7402; format: cell-based; conditions: Homo sapiens, 72 hours, complete medium
Experimental: as §1, §2, §3
Bel-7402: Hepatocellular carcinoma

HCT-8 = assay: Tumor cell proliferation (MTS), HCT-8; format: cell-based; conditions: Homo sapiens, 72 hours, complete medium
Experimental: as §1, §2, §3
HCT-8: Ileocecal colorectal adenocarcinoma

MCF-7 = assay: Tumor cell proliferation (MTS), MCF-7; format: cell-based; conditions: Homo sapiens, MCF7; 72 hours, complete medium
Experimental: as §1, §2, §3
MCF-7: Mammary gland adenocarcinoma

[2] = Body weight in SSMC7721 xenograft study (Example 56); format: in vivo, nu/nu mice
Experimental: The antitumor activity of compound 33 and compound 37 were measured in human SSMC7721 liver cancer xenograft model. The female nu/nu mice of 18˜20 g were fed by normal diet for 3 days. Then the cultured SSMC7721 human liver cancer cells were implanted into the armpit of 50 mice. […] Each group has 8 mice. One group was treated with vehicle. One group was treated with sutent, the positive control drug. Two groups were treated with compound 33. The other two groups were treated with compound 37. Each group was dosed orally once a day for 30 days. Tumor volumes as established by caliper measurements were recorded twice per week, along with body weights. At the end of study, the mice were killed, and tumors were weighed. The tumor growth inhibition of each group was calculated using the formula {[(the average tumor weight of vehicle group)−(the average tumor weight of drug group)]/(the average tumor weight of vehicle group)}×100%.

[3] = 30 mg/kg orally once a day for 30 days
[4] = 60 mg/kg orally once a day for 30 days

Compound: COc1ccc2c(Oc3ccc4c(C(=O)NCc5ccc(C(=O)Nc6ccccc6N)cc5)cccc4c3)ccnc2c1 [Example 33, N-(4-((2-aminophenyl)carbamoyl)benzyl)-6-(7-methoxyquinolin-4-yloxy)-1-naphthamide]
- GI50 (human PDGFRβ): 300 nM
- GI50 (HUVEC cells): 8 nM
- % inhibition of total HDAC enzyme activity at 30 μM [1]: 39.1%
- Class I HDAC (P21 reporter assay) Fold Induction at 10 μM (Class I HDAC): 2.8 Fold
- GI50 (A-498): 1.9 µM
- GI50 (A549): 2.1 µM
- GI50 (Bel-7402): 2.8 µM
- GI50 (HCT-8): 1.5 µM
- GI50 (MCF-7): 2 µM
- Body weight (g) end [2, 3]: 24.0 ± 1.7 g
- Body weight (g) start [2, 3]: 20.8 ± 0.5 g
- Body weight (g) end [2, 4]: 25.4 ± 2.8 g
- Body weight (g) start [2, 4]: 21.4 ± 1.3 g

Compound: COc1ccc2c(Oc3ccc4c(C(=O)Nc5ccccc5N)cccc4c3)ccnc2c1 [Example 31, N-(2-aminophenyl)-6-(7-methoxyquinolin-4-yloxy)-1-naphthamide]
- GI50 (human PDGFRβ): 46 nM
- GI50 (HUVEC cells): 5 nM
- % inhibition of total HDAC enzyme activity at 30 μM [1]: 10.1%
- Class I HDAC (P21 reporter assay) Fold Induction at 10 μM (Class I HDAC): 1.6 Fold
- GI50 (A-498): 9.5 µM
- GI50 (A549): 17.3 µM
- GI50 (Bel-7402): 30 µM
- GI50 (HCT-8): 6.6 µM
- GI50 (MCF-7): 10.2 µM
